Measurements as given in patent US5116834A, “Quinolinecarboxylic acid antibacterial agents” (Warner-Lambert Company, priority 1991, dated 1992).
Values after ≈ are worked out from the molar mass of the structure shown.

Key:
Assay in all cases: In vitro antibacterial activity, microtitration dilution method (MIC)
Type in all cases: cell-based
[1] = tested on: Enterobacter cloacae MA 2646; conditions: MA2646, read-out: Minimal Inhibitory Concentration (MIC)
Text: (§1) The compounds of the invention display anti-bacterial activity when tested by the microtitration dilution method as described in Heifetz, et al, Antimicr. Agents & Chemoth., 6, 124 (1974), which is incorporated herein by reference.
(§2) By use of the above reference method, the following minimum inhibitory concentration value (MICs in μg/mL) shown in Table I were obtained for representative compounds of the invention.

Escherichia coli H56 = conditions: read-out: Minimal Inhibitory Concentration (MIC)
Text: as §1, §2

Escherichia coli Vogel = conditions: read-out: Minimal Inhibitory Concentration (MIC)
Text: as §1, §2

Proteus rettgeri M 1771 = conditions: Providencia rettgeri, M1771, read-out: Minimal Inhibitory Concentration (MIC)
Text: as §1, §2

[2] = tested on: Pseudomonas aeroginosa UI-18; conditions: UI18, read-out: Minimal Inhibitory Concentration (MIC)
Text: as §1, §2

[3] = tested on: Staphylococcus aureus UC-76; conditions: UC76, read-out: Minimal Inhibitory Concentration (MIC)
Text: as §1, §2

[4] = tested on: Streptococcus faecalis MGH-2; conditions: Enterococcus faecalis, MGH2, read-out: Minimal Inhibitory Concentration (MIC)
Text: as §1, §2

[5] = tested on: Streptococcus pyogenes C-203; conditions: C203, read-out: Minimal Inhibitory Concentration (MIC)
Text: as §1, §2

[6] = tested on: Klebsiella pneumoniae MGH-2; conditions: MGH2, read-out: Minimal Inhibitory Concentration (MIC)
Text: (§3) The compounds of the invention display anti-bacterial activity when tested by the microtitration dilution method as described in Heifetz, et al, […]. Agents & Chemoth., 6, 124 (1974), which is incorporated herein by reference. By use of the above reference method, the following minimum inhibitory concentration value (MICs in μg/mL) shown in Table I were obtained for representative compounds of the invention.

[7] = tested on: Staphylococcus aureus H228; conditions: read-out: Minimal Inhibitory Concentration (MIC)
Text: as §3

[8] = tested on: Streptococcus pneumoniae SV-1; conditions: SV1, read-out: Minimal Inhibitory Concentration (MIC)
Text: as §3

MIC [1] [µg/mL] | MIC (Escherichia coli H56) [µg/mL] | MIC (Escherichia coli Vogel) [µg/mL] | MIC (Proteus rettgeri M 1771) [µg/mL] | MIC [2] [µg/mL] | MIC [3] [µg/mL] | MIC [4] [µg/mL] | MIC [5] [µg/mL] | MIC [6] [µg/mL] | MIC [7] [µg/mL] | MIC [8] [µg/mL] | SMILES
0.2 (≈ 0.501 µM) | 0.1 (≈ 0.25 µM) | 0.1 (≈ 0.25 µM) | 0.4 (≈ 1 µM) | 3.1 (≈ 7.76 µM) | 0.003 (≈ 0.00751 µM) | 0.013 (≈ 0.0325 µM) | 0.013 (≈ 0.0325 µM) | 0.4 (≈ 1 µM) | 0.006 (≈ 0.015 µM) | 0.003 (≈ 0.00751 µM) | C=Cc1c(N2CC[C@@H](CNCC)C2)c(F)cc2c(=O)c(C(=O)O)cn(C3CC3)c12 [Ex. 3, 1-Cyclopropyl-8-ethenyl-7-[3(S)-(ethylamino)methyl-1-pyrrolidine]-6-fluoro-1,4-dihydro-4-oxo-3-quinolinecarboxylic acid]
0.1 (≈ 0.269 µM) | 0.05 (≈ 0.135 µM) | 0.1 (≈ 0.269 µM) | 0.4 (≈ 1.08 µM) | 1.6 (≈ 4.31 µM) | 0.1 (≈ 0.269 µM) | 0.4 (≈ 1.08 µM) | 0.2 (≈ 0.538 µM) | 0.2 (≈ 0.538 µM) | 0.2 (≈ 0.538 µM) | 0.2 (≈ 0.538 µM) | C=Cc1c(N2CCNC(C)C2)c(F)cc2c(=O)c(C(=O)O)cn(C3CC3)c12 (stereo not drawn) [Ex. 1, 1-Cyclopropyl-8-ethenyl-6-fluoro-1,4-dihydro-7-(3-methyl-1-piperazinyl)-4-oxo-3-quinolinecarboxylicacid]

SMILES | MIC [1] [µg/mL] | MIC (Escherichia coli H56) [µg/mL] | MIC (Escherichia coli Vogel) [µg/mL] | MIC (Proteus rettgeri M 1771) [µg/mL] | MIC [2] [µg/mL] | MIC [3] [µg/mL] | MIC [4] [µg/mL] | MIC [5] [µg/mL] | MIC [6] [µg/mL] | MIC [7] [µg/mL] | MIC [8] [µg/mL]
C=Cc1c(N2CCNCC2)c(F)cc2c(=O)c(C(=O)O)cn(C3CC3)c12 [Ex. 2, 1-Cyclopropyl-8-ethenyl-6-fluoro-1,4-dihydro-4-oxo-7-(1-piperazinyl)-3-quinolinecarboxylic acid] | 0.1 (≈ 0.28 µM) | 0.05 (≈ 0.14 µM) | 0.1 (≈ 0.28 µM) | 0.4 (≈ 1.12 µM) | 1.6 (≈ 4.48 µM) | 0.1 (≈ 0.28 µM) | 0.4 (≈ 1.12 µM) | 0.4 (≈ 1.12 µM) | 0.2 (≈ 0.56 µM) | 0.4 (≈ 1.12 µM) | 0.4 (≈ 1.12 µM)
